We go through one molecule from the NIST ThermoML archive (doi:10.1021/je700599z).

The conditions of the data set: DTA.

± gives the expanded uncertainty stated by the source.

For `CCn1cc[n+](C)c1.NCC(=O)[O-]` [1-ethyl-3-methylimidazolium ammonioacetate], the Glass transition temperature is -62.0 ± 3 °C.
